Source: publication PMC4738246, “Conformational dynamics is key to understanding loss-of-function of NQO1 cancer-associated polymorphisms and its correction by pharmacological ligands” (Scientific Reports, 2016)
Where two headings read alike, the source gives them in different places.

Experiments:
[1] = biological target: T1, NQO1 p.P187S (Homo sapiens, UniProt P15559, P187S); set-up: made in house; conditions: FAD binding to p.P187S; single set of sites model; average of two titrations; read-out: Kd1; cited from earlier work
T1 sequence (P15559 whole entry P187S): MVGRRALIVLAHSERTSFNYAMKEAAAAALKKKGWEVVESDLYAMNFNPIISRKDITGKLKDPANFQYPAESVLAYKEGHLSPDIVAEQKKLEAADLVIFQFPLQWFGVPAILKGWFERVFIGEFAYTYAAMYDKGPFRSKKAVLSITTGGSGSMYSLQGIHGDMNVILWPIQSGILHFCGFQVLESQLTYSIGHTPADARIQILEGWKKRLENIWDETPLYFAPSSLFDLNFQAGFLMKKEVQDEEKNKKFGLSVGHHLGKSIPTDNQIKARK

[2] = biological target: T2, NQO1 p.R139W (Homo sapiens, UniProt P15559, R139W); assay: Proteolysis by thermolysin, p.R139W NQO1; conditions: p.R139W apo-protein vs as purified
T2 sequence (P15559 whole entry R139W): as the sequence (P15559 whole entry P187S) above, with R139W, S187P counted along it
Method: (§2) Proteolysis was performed at 25 °C in HEPES-KOH 50 mM CaCl2 10 mM pH 7.4 using 20 μM in NQO1 (monomer), and the reaction was initiated by the addition of thermolysin (at a final concentration of 10 pM-1 μM) in a final volume of 200 μL. Proteolysis reactions were performed using the NQO1 proteins as purified or as apo-proteins. […] After normalization of the intensities using that of the control sample in the absence of thermolysin, the Intensity (I) vs. Time (t) profiles were analyzed using a single exponential function:
(§3) where k is the proteolysis rate constant and I0 the initial intensity.

[3] = biological target: T3, NQO1 WT (Homo sapiens, UniProt P15559); set-up: made in house; conditions: FAD binding to WT, two-sequential binding sites model, average of two titrations, cited from earlier work
T3 sequence (P15559 whole entry): as the sequence (P15559 whole entry P187S) above, with S187P counted along it

[4] = biological target: T3, NQO1 WT; assay: Proteolysis by thermolysin, WT NQO1; conditions: WT apo-protein vs as purified
Method: as §2, §3

[5] = biological target: T2, NQO1 p.R139W; set-up: made in house; conditions: FAD binding to p.R139W, two-sequential binding sites model, average of two titrations, cited from earlier work
[6] = biological target: T1, NQO1 p.P187S; assay: Binding affinity by ITC, p.P187S NQO1; conditions: FAD and dicoumarol stated together
Method: After peak integration, binding isotherms were analyzed using a one-type of independent sites model using the software provided by the manufacturer.

[7] = tested on: HCT 116 cells (heterozygous for p.R139W); conditions: 24 h, dicoumarol 100 μM, riboflavin 10 μM
Method: (§1) After transferring to polyvinylidene difluoride membranes (GE Healthcare), immunoblotting was carried out using primary monoclonal antibodies anti-NQO1 and anti-β-actin (Santa Cruz Biotechnology) from mouse at 1:500 and 1:10000 dilutions, respectively. As secondary antibody, we used goat anti-mouse IgG-HRP (Santa Cruz Biotechnology) at 1:1000 dilution. Chemiluminiscent detection of bands was carried out using Clarity™ Western ECL Blotting Substrate (Biorad) and analyzed using a luminescent image analyzer LAS-4000 mini (Fujifilm).

[8] = tested on: HeLa cells (expressing WT NQO1); conditions: 24 h, dicoumarol 100 μM, riboflavin 10 μM
Method: as §1

[9] = tested on: Caco-2 cells (homozygous for p.P187S); assay: Steady-state NQO1 protein levels by immunoblotting, Caco-2 cells; assay type: cell-based, human; conditions: 24 h, dicoumarol 100 μM, riboflavin 10 μM, normalized to untreated cells
Method: as §1

Compound	Kd [1]	increase in the sensitivity towards thermolysin on removal of FAD [2]	Kd ([3]; read-out: Kd1)	Kd ([3]; read-out: Kd2)	increase in the sensitivity towards thermolysin on removal of FAD [4]	Kd ([5]; read-out: Kd1)	Kd ([5]; read-out: Kd2)	lower affinity of p.P187S than the WT enzyme [6]	effect on protein levels of p.R139W NQO1 [7]	effect on protein levels of WT NQO1 [8]	enhancement of steady-state levels of p.P187S NQO1 protein [9]
Cc1cc2nc3c(=O)[nH]c(=O)nc-3n(C[C@H](O)[C@H](O)[C@H](O)COP(=O)(O)OP(=O)(O)OC[C@H]3O[C@@H](n4cnc5c(N)ncnc54)[C@H](O)[C@@H]3O)c2cc1C [FAD]	400 nM	200 fold	~1 nM	60 nM	200 fold	~3 nM	70 nM	10–100 fold			
Cc1cc2nc3c(=O)[nH]c(=O)nc-3n(C[C@H](O)[C@H](O)[C@H](O)CO)c2cc1C [riboflavin]									small effects	small effects	much lower effect
